The record followed here is patent US20240317724A1, “3,4-METHYLENEDIOXYMETHAMPHETAMINE AND RELATED PS[…] USES THEREOF” (Terran Biosciences Inc., priority 2021, published 2024).

Data set [1] can be described thus: Single oral (PO) dose pharmacokinetics study in rats; plasma concentration of MDMA (and prodrug) by LC-MS/MS. To be noted: for AUC(0-t): po, mean.
Data set [2] can be described thus: Single intravenous (IV) dose pharmacokinetics study in rats; plasma concentration of MDMA by LC-MS/MS.
The mark [3] stands for this setting: male, Sprague-Dawley, rat, plasma, iv, 1 mg/kg.
Setting [4] is: 0.50 h after oral dosing of prodrug 10 mg/Kg, male SD rats.
Setting [5] is: 1.00 h after oral dosing of prodrug 10 mg/Kg, male SD rats.
The mark [6] stands for this setting: 2.00 h after oral dosing of prodrug 10 mg/Kg, male SD rats.
Setting [7] is: 4.00 h after oral dosing of prodrug 10 mg/Kg, male SD rats.
[8] abbreviates: 7.00 h after oral dosing of prodrug 10 mg/Kg, male SD rats.
[9] abbreviates: 24.0 h after oral dosing of prodrug 10 mg/Kg, male SD rats.

The structures appear in SMILES notation.

Take `CNC(C)Cc1ccc2c(c1)OCO2` (centres unmarked) [MDMA, 3,4-Methylenedioxymethamphetamine]: the Tlast in data set [1] (MDMA dosed PO 10 mg/Kg, male SD rats, analyte MDMA, median) worked out at 7.00 h; in data set [2] (MDMA dosed IV 1 mg/Kg, male SD rats, analyte MDMA, median), 2.00 h. In data set [1] (male, Sprague-Dawley, rat, plasma, oral, 10 mg/kg), the bioavailability was 104%. The AUC(0-t) (as a rule, exposure summed from dosing to a finite time, without extrapolation to infinity) in data set [1] (male, Sprague-Dawley, rat, plasma, 10 mg/kg, AUC0-2, MDMA dosed PO 10 mg/Kg, male SD rats, analyte MDMA) worked out at 638 ng·h/mL; in data set [1] (male, Sprague-Dawley, rat, plasma, 10 mg/kg, AUC0-24, MDMA dosed PO 10 mg/Kg, male SD rats, analyte MDMA), 1810 ng·h/mL; in data set [1] (male, Sprague-Dawley, rat, plasma, 10 mg/kg, AUC0-last, MDMA dosed PO 10 mg/Kg, male SD rats, analyte MDMA) it was 1710 ng·h/mL. Further, the volume of distribution (Vd) (in general, a proportionality between amount in the body and measured concentration, not a real space) in data set [2] (setting [3]) is 8.18 L/kg. Also, the clearance (as a rule, the rate of elimination divided by the concentration) in data set [2] (setting [3]) amounted to 274 mL/min/kg.
Consider `CC(Cc1ccc2c(c1)OCO2)N(C)C(=O)C1CCOCC1` (centres unmarked) [Pyran amide prodrug of MDMA, N-[2-(2H-1,3-Benzodioxol-5-yl)-1-methyl-ethyl]-N-methyl-tetrahydro-2H-pyran-4-carboxamide], for which the “Mean plasma concentration of metabolite MDMA” value (shortened to “Mean plasma concentration”) in data set [1] (setting [4]), in data set [1] (setting [5]), in data set [1] (setting [6]), in data set [1] (setting [7]), in data set [1] (setting [8]) and in data set [1] (setting [9]) was “BLQ (BLQ: Below Lower Limit of Quantification (0.5 ng/mL))” in each case.
Take `CC(Cc1ccc2c(c1)OCO2)N(C)C(=O)CN(C)C(=O)[C@@H](N)Cc1ccccc1` (stereo partly drawn) [SarcPhe prodrug of MDMA, (2S)-2-amino-N-[2-[[2-(1,3-benzodioxol-5-yl)-1-methyl-ethyl]-methyl-amino]-2-oxo-ethyl]-N-methyl-3-phenyl-propanamide]: the “Mean plasma concentration” value in data set [1] (setting [4]), in data set [1] (setting [5]), in data set [1] (setting [6]), in data set [1] (setting [7]), in data set [1] (setting [8]) and in data set [1] (setting [9]) was “BLQ (BLQ: Below Lower Limit of Quantification (0.5 ng/mL))” each time.
For the compound `CC(Cc1ccc2c(c1)OCO2)N(C)C(=O)OC1CCOC1` (centres unmarked) [THF carbamate prodrug of MDMA, tetrahydrofuran-3-yl N-[2-(1,3-benzodioxol-5-yl)-1-methyl-ethyl]-N-methyl-carbamate], the “Mean plasma concentration” value in data set [1] (setting [4]), in data set [1] (setting [5]), in data set [1] (setting [6]), in data set [1] (setting [7]), in data set [1] (setting [8]) and in data set [1] (setting [9]) was “BLQ (BLQ: Below Lower Limit of Quantification (0.5 ng/mL))” in each case.
In the case of `CC(Cc1ccc2c(c1)OCO2)N(C)C(=O)C(C)(C)C` (centres unmarked) [Tert-butyl amide prodrug of MDMA, N-[2-(2H-1,3-Benzodioxol-5-yl)-1-methyl-ethyl]-N-methyl-2,2-dimethylpropionamide], the “Mean plasma concentration” value in data set [1] (setting [4]), in data set [1] (setting [5]), in data set [1] (setting [6]), in data set [1] (setting [7]), in data set [1] (setting [8]) and in data set [1] (setting [9]) was “BLQ (BLQ: Below Lower Limit of Quantification (0.5 ng/mL))” in each case.
With `CC(Cc1ccc2c(c1)OCO2)N(C)C(=O)OC(C)(C)C` (centres unmarked) [Tert-butyl carbamate prodrug of MDMA, tert-butyl N-[2-(1,3-benzodioxol-5-yl)-1-methyl-ethyl]-N-methyl-carbamate], the “Mean plasma concentration” value in data set [1] (setting [4]), in data set [1] (setting [5]), in data set [1] (setting [6]), in data set [1] (setting [7]), in data set [1] (setting [8]) and in data set [1] (setting [9]) was “BLQ (BLQ: Below Lower Limit of Quantification (0.5 ng/mL))” in each case.
As to `CC(C)[C@H](N)C(=O)N(C)C(C)Cc1ccc2c(c1)OCO2` (stereo partly drawn) [Valine prodrug of MDMA, (2S)-2-amino-N-[2-(1,3-benzodioxol-5-yl)-1-methyl-ethyl]-N,3-dimethyl-butanamide], the “Mean plasma concentration” value in data set [1] (setting [4]), in data set [1] (setting [5]), in data set [1] (setting [6]), in data set [1] (setting [7]), in data set [1] (setting [8]) and in data set [1] (setting [9]) was “BLQ (BLQ: Below Lower Limit of Quantification (0.5 ng/mL))” each time.
As for `CC(Cc1ccc2c(c1)OCO2)N(C)C(=O)OCC(C)(C)COC(=O)C(C)(C)C` (centres unmarked) [[3-[[2-(1,3-Benzodioxol-5-yl)-1-methyl-ethyl]-methyl-carbamoyl]oxy-2,2-dimethyl-propyl] 2,2-dimethylpropanoate], the “Mean plasma concentration” value in data set [1] (setting [4]), in data set [1] (setting [5]), in data set [1] (setting [6]), in data set [1] (setting [7]), in data set [1] (setting [8]) and in data set [1] (setting [9]) was “BLQ (BLQ: Below Lower Limit of Quantification (0.5 ng/mL))” in each case.
